Measurements from patent publication US20150148320A1, “COSMETIC USE OF SALICYLIC ACID DERIVATIVES” (Avon Products, Inc., priority 2013, published 2015).

What was measured:
[1] = Skin PAMPA parallel artificial membrane penetration assay; type: in vitro ADME; settings: 50 μM, donor pH 4.25, acceptor pH 7.4, two hours incubation
Description: Several salicylic acid derivatives were assessed for their ability to penetrate skin. Each of the compounds was formulated in an aqueous buffer, with a final pH of 4.25 at a concentration of 50 μM. The skin permeability of the compounds was measured using a high throughput transdermal permeability model, the parallel artificial membrane penetration assay (Skin PAMPA™), which uses a skin mimetic artificial membrane that simulates the barrier properties of the strateum corneum.
Briefly, the Skin PAMPA™ assay is a sandwich assay that utilizes two 96-well plate assemblies, one of which acts as the acceptor chambers (comprising a buffer), and one of which acts as the donor chambers (comprising a buffer and the compound to be tested). […] After an incubation period, the donor and acceptor chambers are analyzed for the amount of compound present.
In the current experiments, the acceptor chamber included an acceptor solution made from Prisma™ HT buffer solution (Pion, Inc.) that was adjusted to a pH of 7.4±0.05 using 1.0 M NaOH, and the donor chamber included a donor solution made from Prisma™ HT buffer solution (Pion, Inc.) that was adjusted to a pH of 4.25±0.05 using 1.0 M NaOH. […] Effective permeability was then calculated by the same method as Sinko et al., Eur. J. Pharm. […]

[2] = molecular target: T1, recombinant human (rh) KLK5 (Homo sapiens, UniProt Q9Y337); experiment: Enzymatic activity of Kallikrein 5 (KLK5), fluorogenic peptide substrate Boc-V-P-R-AMC; type: biochemical
T1 construct: purchased R&D Systems 1108-SE
T1 sequence (Q9Y337 23-293): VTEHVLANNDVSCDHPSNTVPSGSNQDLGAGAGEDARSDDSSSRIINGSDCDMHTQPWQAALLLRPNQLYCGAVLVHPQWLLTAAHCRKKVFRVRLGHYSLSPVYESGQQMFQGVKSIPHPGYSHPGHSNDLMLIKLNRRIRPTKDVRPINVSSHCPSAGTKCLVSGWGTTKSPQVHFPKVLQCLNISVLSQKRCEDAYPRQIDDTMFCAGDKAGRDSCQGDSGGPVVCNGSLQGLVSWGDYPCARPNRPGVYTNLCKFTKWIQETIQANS
Description: Compound 1 was assayed for enzymatic activity of Kallikrein 5 (KLK5) as follows, and its activity compared to that of salicylic acid. The KLK5 activity of compound 1 was calculated as a percentage of KLK5 activity relative to salicylic acid. The KLK5 activity of compound 1 was about 165% relative to the KLK5 activity of salicylic acid.
In the stratum corneum, skin's outermost layer, cell-to-cell cohesion depends primarily on proteins known as the corneodesmosomes. During skin remodeling and renewal dead cells are shed from the skin surface by the action of native proteases that break down the corneodesmosomes. […] Hypothetically, up-regulation of the activities of these proteases using different active candidates could be utilized to increase the rate of shedding of dead skin, thus providing a natural means for skin exfoliation. To this end, the enzymatic activity of a member of the KLK family, recombinant human (rh) KLK5, was monitored following pre-incubation with actives and measuring the rate of peptide bond cleavage of a synthetic substrate.
Enzymatic activity of KLK5 was measured by incubating recombinant human (rh) KLK5 protease (R&D Systems, Cat No. 1108-SE) with a specific fluorogenic peptide substrate Boc-V-P-R-AMC (R& D Systems, Cat No. ES011). The substrate is conjugated to a quenched fluorescent group. […] Increase in fluorescence reading indicates an increase in rhKLK5 activity. […] After 60 seconds of incubation, fluorescence was measured at 340 nm (Excitation wavelength) and 485 nm (Emission wavelength) every 1 minute for 7 minutes. Rate (kinetics) of enzyme activity was calculated as follows: Rate of enzyme activity=Change of fluorescent reading (after background correction) Change of reaction time (min) Percent change of activity due to a test compound was calculated by comparing rate of enzyme activity in the presence of the test compound to that of a control without the test compound and statistical significance was calculated using a t-test. […]

CCOC(=O)c1cc2c(c(C(=O)OCC)c1O)CCCC2 [Compound 1]
skin permeability as compared to salicylic acid (in words) [1]: higher permeability | stimulation of KLK5 (in words) ([2]; rhKLK5): very potent stimulator of KLK5 | KLK5 activity as a percentage relative to the KLK5 activity of salicylic acid ([2]; rhKLK5, rate of enzyme activity relative to salicylic acid): about 165% | KLK5 activity as compared to salicylic acid (in words) ([2]; rhKLK5, FIG. 1 asterisk): superior KLK5 activity
